20 compounds from US9249145B2, “Heterocyclic derivatives of pyrazol-4-yl-pyrrolo[2,3-d]pyrimidines as janus kinase inhibitors” (Incyte Holdings Corporation, priority 2009, dated 2016) can be followed below.

In general, IC50 refers to the point on the concentration scale where inhibition reaches its midpoint.

Structures can show the parent of a compound that is named as a salt. Where two headings read alike, the source gives them in different places.

The target of test [1] is T1, human JAK1 (a.a. 837-1142) (Homo sapiens, UniProt P23458).
T1 construct: The catalytic domains of human JAK1 (a.a. 837-1142); His tag (N); made in house; host or cells: insect cells (baculovirus)
Description: In vitro JAK kinase assay (HTRF, phosphorylation of biotinylated peptide), JAK1. It is filed as biochemical. The conditions noted are these: 1 mM ATP. The protocol: (§1) Compounds herein were tested for inhibitory activity of JAK targets according to the following in vitro assay described in Park et al., Analytical Biochemistry 1999, 269, 94-104. The catalytic domains of human JAK1 (a.a. 837-1142), Jak2 (a.a. 828-1132) and Jak3 (a.a. 781-1124) with an N-terminal His tag were expressed using baculovirus in insect cells and purified. The catalytic activity of JAK1, JAK2 or JAK3 was assayed by measuring the phosphorylation of a biotinylated peptide. The phosphorylated peptide was detected by homogenous time resolved fluorescence (HTRF). IC50s of compounds were measured for each kinase in the 40 microL reactions that contain the enzyme, ATP and 500 nM peptide in 50 mM Tris (pH 7.8) buffer with 100 mM NaCl, 5 mM DTT, and 0.1 mg/mL (0.01%) BSA. The ATP concentration in the reactions was 90 μM for Jak1, 30 μM for Jak2 and 3 μM for Jak3 for Km conditions. For the 1 mM IC50 measurements, ATP concentration in the reactions was 1 mM. Reactions were carried out at room temperature for 1 hr and then stopped with 20 μL 45 mM EDTA, 300 nM SA-APC, 6 nM Eu-Py20 in assay buffer (Perkin Elmer, Boston, Mass.). Binding to the Europium labeled antibody took place for 40 minutes and HTRF signal was measured on a Fusion plate reader (Perkin Elmer, Boston, Mass.). See Tables 1, 2, 3, and 4 for data related to compounds of the invention.
(In general: Time-resolved FRET reads energy transfer from a long-lived donor to a nearby acceptor.)

In another test the target is T2, Jak2 (a.a. 828-1132) (Homo sapiens, UniProt O60674).
T2 construct: Jak2 (a.a. 828-1132); His tag (N); made in house; host or cells: insect cells (baculovirus)
Briefly: In vitro JAK kinase assay (HTRF, phosphorylation of biotinylated peptide), JAK2. Type of test: biochemical. The conditions noted are these: 1 mM ATP. The method, then:
as §1

[2] abbreviates: Examples 12-91, read-out: JAK1 IC50 (nM) @ 1 mM ATP.
The mark [3] stands for this setting: Examples 12-91, read-out: JAK2 IC50 (nM) @ 1 mM ATP.
The mark [4] stands for this setting: Examples 92-162, read-out: JAK1 IC50 (nM) @ 1 mM ATP.
[5] abbreviates: Examples 92-162, read-out: JAK2 IC50 (nM) @ 1 mM ATP.

T2 sequence (O60674 828-1132): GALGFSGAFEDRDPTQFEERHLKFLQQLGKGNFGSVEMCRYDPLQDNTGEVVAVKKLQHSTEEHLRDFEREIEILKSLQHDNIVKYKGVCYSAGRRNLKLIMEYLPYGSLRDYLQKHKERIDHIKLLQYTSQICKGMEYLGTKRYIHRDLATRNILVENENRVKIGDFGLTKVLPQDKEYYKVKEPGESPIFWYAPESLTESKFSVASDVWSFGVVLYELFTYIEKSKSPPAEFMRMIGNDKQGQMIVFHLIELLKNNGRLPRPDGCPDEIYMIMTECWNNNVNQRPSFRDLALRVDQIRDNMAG
T1 sequence (P23458 849-1154): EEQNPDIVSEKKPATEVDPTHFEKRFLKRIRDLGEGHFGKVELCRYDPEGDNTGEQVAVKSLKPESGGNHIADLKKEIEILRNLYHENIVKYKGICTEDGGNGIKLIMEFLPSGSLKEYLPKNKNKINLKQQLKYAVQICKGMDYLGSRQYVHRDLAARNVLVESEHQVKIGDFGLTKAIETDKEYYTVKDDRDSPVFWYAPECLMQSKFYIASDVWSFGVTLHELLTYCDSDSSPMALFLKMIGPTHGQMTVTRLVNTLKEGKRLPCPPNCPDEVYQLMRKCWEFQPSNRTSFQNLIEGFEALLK

As to “4-(4-(2-(4-(7H-pyrrolo[2,3-d]pyrimidin-4-yl)-1H-pyrazol-1-yl)-3-cyanopropyl)piperazine-1-carbonyl)-3-hydroxybenzonitrile [Example 77]”, the 50% inhibitory concentration (IC50) in test [1] (setting [2]) was under 10 nM; at Jak2 (a.a. 828-1132) (setting [3]), 10 to 50 nM.

With `N#CCC(CN1CCN(C(=O)c2ccc(C#N)cc2F)C(CO)C1)n1cc(-c2ncnc3[nH]ccc23)cn1` (mixture of isomers) [Example 160, 4-{[4-{3-cyano-2-[4-(7H-pyrrolo[2,3-d]pyrimidin-4-yl)-1H-pyrazol-1-yl]propyl}-2-(hydroxymethyl)piperazin-1-yl]carbonyl}-3-fluorobenzonitrile], the IC50 is 20 to 50 nM in test [1] (setting [4]) and over 100 nM on Jak2 (a.a. 828-1132) (setting [5]).

Turning to `C[C@@H]1CN(CC(CC#N)n2cc(-c3ncnc4[nH]ccc34)cn2)CCN1C(=O)c1ccc(C#N)cc1F` (mixture of isomers) [Example 161, 4-[((2R)-4-{3-cyano-2-[4-(7H-pyrrolo[2,3-d]pyrimidin-4-yl)-1H-pyrazol-1-yl]propyl}-2-methylpiperazin-1-yl)carbonyl]-3-fluorobenzonitrile], the IC50 is 50 to 100 nM in test [1] (setting [4]) and over 100 nM at Jak2 (a.a. 828-1132) (setting [5]).

On to `C[C@H]1CN(CC(CC#N)n2cc(-c3ncnc4[nH]ccc34)cn2)CCN1C(=O)c1ccc(C#N)cc1F` (mixture of isomers) [Example 162, 4-[((2S)-4-{3-cyano-2-[4-(7H-pyrrolo[2,3-d]pyrimidin-4-yl)-1H-pyrazol-1-yl]propyl}-2-methylpiperazin-1-yl)carbonyl]-3-fluorobenzonitrile], for which the IC50 in test [1] (setting [4]) is 20 to 50 nM; on Jak2 (a.a. 828-1132) (setting [5]), over 100 nM.

In the case of `Cn1ccc(S(=O)(=O)N2CCN(CC(CF)n3cc(-c4ncnc5[nH]ccc45)cn3)CC2)n1` (racemic) [Example 10, (±)-4-(1-(1-fluoro-3-(4-(1-methyl-1H-pyrazol-3-ylsulfonyl)piperazin-1-yl)propan-2-yl)-1H-pyrazol-4-yl)-7H-pyrrolo[2,3-d]pyrimidine], the IC50 was under 10 nM in test [1] (Examples 1-11, read-out: IC50 (nM) @ 1 mM ATP JAK1) and over 20 nM on Jak2 (a.a. 828-1132) (Examples 1-11, read-out: IC50 (nM) @ 1 mM ATP JAK2).

`C[C@@H]1CN(C(=O)c2ccc(C#N)cc2F)CCN1CC(CC#N)n1cc(-c2ncnc3[nH]ccc23)cn1` (single isomer, unassigned) [24, R-1]: the IC50 in test [1] (setting [2]) is under 10 nM; on Jak2 (a.a. 828-1132) (setting [3]), over 100 nM.

With `C[C@@H]1CN(C(=O)c2ccc(C#N)cc2F)CCN1CC(CC#N)n1cc(-c2ncnc3[nH]ccc23)cn1` (single isomer, unassigned) [24, R-2], the IC50 (in test [1] (setting [2]); at Jak2 (a.a. 828-1132) (setting [3])) was over 100 nM in each case.

In the case of `C[C@H]1CN(C(=O)c2ccc(C#N)cc2F)CCN1CC(CC#N)n1cc(-c2ncnc3[nH]ccc23)cn1` (single isomer, unassigned) [25, S-1], the IC50 (in test [1] (setting [2]); on Jak2 (a.a. 828-1132) (setting [3])) was over 100 nM throughout.

Turning to `C[C@H]1CN(C(=O)c2ccc(C#N)cc2F)CCN1CC(CC#N)n1cc(-c2ncnc3[nH]ccc23)cn1` (single isomer, unassigned) [25, S-2], the IC50 in test [1] (setting [2]) was under 10 nM; on Jak2 (a.a. 828-1132) (setting [3]), over 100 nM.

Consider `N#CCC(CN1CCN(C(=O)c2ccc(C#N)cc2F)CC1CO)n1cc(-c2ncnc3[nH]ccc23)cn1` (single isomer, unassigned) [156—peak 1, 4-{[4-{3-cyano-2-[4-(7H-pyrrolo[2,3-d]pyrimidin-4-yl)-1H-pyrazol-1-yl]propyl}-3-(hydroxymethyl)piperazin-1-yl]carbonyl}-3-fluorobenzonitrile trifluoroacetate Salt], for which the half-inhibitory concentration (IC50) in test [1] (setting [4]) was under 20 nM; on Jak2 (a.a. 828-1132) (setting [5]), over 100 nM.

Regarding `N#CCC(CN1CCN(C(=O)c2ccc(C#N)cc2F)CC1CO)n1cc(-c2ncnc3[nH]ccc23)cn1` (single isomer, unassigned) [156—peak 2, 4-{[4-{3-cyano-2-[4-(7H-pyrrolo[2,3-d]pyrimidin-4-yl)-1H-pyrazol-1-yl]propyl}-3-(hydroxymethyl)piperazin-1-yl]carbonyl}-3-fluorobenzonitrile trifluoroacetate Salt], the 50% inhibitory concentration (IC50) (in test [1] (setting [4]); on Jak2 (a.a. 828-1132) (setting [5])) was over 100 nM in each case.

As to `N#CCC(CN1CCN(C(=O)c2ccc(C#N)cc2F)CC1CO)n1cc(-c2ncnc3[nH]ccc23)cn1` (single isomer, unassigned) [156—peak 3, 4-{[4-{3-cyano-2-[4-(7H-pyrrolo[2,3-d]pyrimidin-4-yl)-1H-pyrazol-1-yl]propyl}-3-(hydroxymethyl)piperazin-1-yl]carbonyl}-3-fluorobenzonitrile trifluoroacetate Salt], the half-maximal inhibitory concentration (IC50) in test [1] (setting [4]) is 50 to 100 nM; at Jak2 (a.a. 828-1132) (setting [5]), over 100 nM.

`N#CCC(CN1CCN(C(=O)c2ccc(C#N)cc2F)CC1CO)n1cc(-c2ncnc3[nH]ccc23)cn1` (single isomer, unassigned) [156—peak 4, 4-{[4-{3-cyano-2-[4-(7H-pyrrolo[2,3-d]pyrimidin-4-yl)-1H-pyrazol-1-yl]propyl}-3-(hydroxymethyl)piperazin-1-yl]carbonyl}-3-fluorobenzonitrile trifluoroacetate Salt]: the 50% inhibitory concentration (IC50) (in test [1] (setting [4]); on Jak2 (a.a. 828-1132) (setting [5])) was over 100 nM throughout.

For the compound `N#CCC(CN1CCN(C(=O)c2ccc(C#N)cc2F)CC1)n1cc(-c2ncnc3[nH]ccc23)cn1` (single isomer, unassigned) [Example 12, 4-[(4-{3-cyano-2-[4-(7H-pyrrolo[2,3-d]pyrimidin-4-yl)-1H-pyrazol-1-yl]propyl}piperazin-1-yl)carbonyl]-3-fluorobenzonitrile trifluoroacetate Salt], the IC50 in test [1] (setting [2]) is under 10 nM; at Jak2 (a.a. 828-1132) (setting [3]) it was 50 to 100 nM.

As to `N#CCC(CN1CCN(C(=O)c2ccc(C#N)cc2F)CC1)n1ccc(-c2ncnc3[nH]ccc23)c1` (single isomer, unassigned) [Example 13, 4-[(4-{3-cyano-2-[3-(7H-pyrrolo[2,3-d]pyrimidin-4-yl)-1H-pyrrol-1-yl]propyl}piperazin-1-yl)carbonyl]-3-fluorobenzonitrile trifluoroacetate Salt], the IC50 was under 10 nM in test [1] (setting [2]) and 50 to 100 nM on Jak2 (a.a. 828-1132) (setting [3]).

Regarding `COCC1CN(C(=O)c2ccc(C#N)cc2F)CCN1CC(CC#N)n1cc(-c2ncnc3[nH]ccc23)cn1` (single isomer, unassigned) [Example 157—peak 1, 4-{[4-{3-cyano-2-[4-(7H-pyrrolo[2,3-d]pyrimidin-4-yl)-1H-pyrazol-1-yl]propyl}-3-(methoxymethyl)piperazin-1-yl]carbonyl}-3-fluorobenzonitrile], the concentration for half-maximal inhibition (IC50) (in test [1] (setting [4]); on Jak2 (a.a. 828-1132) (setting [5])) was over 100 nM throughout.

Take `COCC1CN(C(=O)c2ccc(C#N)cc2F)CCN1CC(CC#N)n1cc(-c2ncnc3[nH]ccc23)cn1` (single isomer, unassigned) [Example 157—peak 2, 4-{[4-{3-cyano-2-[4-(7H-pyrrolo[2,3-d]pyrimidin-4-yl)-1H-pyrazol-1-yl]propyl}-3-(methoxymethyl)piperazin-1-yl]carbonyl}-3-fluorobenzonitrile]: the results for the concentration for half-maximal inhibition (IC50) (in test [1] (setting [4]); at Jak2 (a.a. 828-1132) (setting [5])) were under 20 nM and over 100 nM, respectively.

In the case of `COCC1CN(C(=O)c2ccc(C#N)cc2F)CCN1CC(CC#N)n1cc(-c2ncnc3[nH]ccc23)cn1` (single isomer, unassigned) [Example 157—peak 3, 4-{[4-{3-cyano-2-[4-(7H-pyrrolo[2,3-d]pyrimidin-4-yl)-1H-pyrazol-1-yl]propyl}-3-(methoxymethyl)piperazin-1-yl]carbonyl}-3-fluorobenzonitrile], the half-maximal inhibitory concentration (IC50) (in test [1] (setting [4]); on Jak2 (a.a. 828-1132) (setting [5])) was over 100 nM each time.

`N#CCC(CN1CCN(C(=O)c2ccc(C#N)cc2F)CC1CF)n1cc(-c2ncnc3[nH]ccc23)cn1` (single isomer, unassigned) [Example 158, 4-[(4-{3-cyano-2-[4-(7H-pyrrolo[2,3-d]pyrimidin-4-yl)-1H-pyrazol-1-yl]propyl}-3-fluoromethylpiperazin-1-yl)carbonyl]-3-fluorobenzonitrile]: the half-maximal inhibitory concentration (IC50) in test [1] (setting [4]) was under 20 nM; on Jak2 (a.a. 828-1132) (setting [5]), over 100 nM.

`N#CCC(CN1CCN(C(=O)c2ccc(C#N)cc2F)CC1C(F)F)n1cc(-c2ncnc3[nH]ccc23)cn1` (single isomer, unassigned) [Example 159—peak 1, 4-{[4-{3-cyano-2-[4-(7H-pyrrolo[2,3-d]pyrimidin-4-yl)-1H-pyrazol-1-yl]propyl}-3-(difluoromethyl)piperazin-1-yl]carbonyl}-3-fluorobenzonitrile]: the IC50 (in test [1] (setting [4]); on Jak2 (a.a. 828-1132) (setting [5])) was over 100 nM each time.
